{
  "source": "paper PMC6628435",
  "about": "“Chemical Synthesis, Proper Folding, Nav Channel Selectivity Profile and Analgesic Properties of the Spider Peptide Phlotoxin 1” (Toxins, 2019)",
  "assay_type_in_all_cases": "cell-based",
  "key": {"[1]": {"molecular_target": "T1, Nav1.7/β1 (Rattus norvegicus, UniProt O08562)", "T1 construct": "expressed in transfected cells; host or cells: Xenopus laevis oocytes injected with cRNA", "T1 sequence (O08562 whole entry)": "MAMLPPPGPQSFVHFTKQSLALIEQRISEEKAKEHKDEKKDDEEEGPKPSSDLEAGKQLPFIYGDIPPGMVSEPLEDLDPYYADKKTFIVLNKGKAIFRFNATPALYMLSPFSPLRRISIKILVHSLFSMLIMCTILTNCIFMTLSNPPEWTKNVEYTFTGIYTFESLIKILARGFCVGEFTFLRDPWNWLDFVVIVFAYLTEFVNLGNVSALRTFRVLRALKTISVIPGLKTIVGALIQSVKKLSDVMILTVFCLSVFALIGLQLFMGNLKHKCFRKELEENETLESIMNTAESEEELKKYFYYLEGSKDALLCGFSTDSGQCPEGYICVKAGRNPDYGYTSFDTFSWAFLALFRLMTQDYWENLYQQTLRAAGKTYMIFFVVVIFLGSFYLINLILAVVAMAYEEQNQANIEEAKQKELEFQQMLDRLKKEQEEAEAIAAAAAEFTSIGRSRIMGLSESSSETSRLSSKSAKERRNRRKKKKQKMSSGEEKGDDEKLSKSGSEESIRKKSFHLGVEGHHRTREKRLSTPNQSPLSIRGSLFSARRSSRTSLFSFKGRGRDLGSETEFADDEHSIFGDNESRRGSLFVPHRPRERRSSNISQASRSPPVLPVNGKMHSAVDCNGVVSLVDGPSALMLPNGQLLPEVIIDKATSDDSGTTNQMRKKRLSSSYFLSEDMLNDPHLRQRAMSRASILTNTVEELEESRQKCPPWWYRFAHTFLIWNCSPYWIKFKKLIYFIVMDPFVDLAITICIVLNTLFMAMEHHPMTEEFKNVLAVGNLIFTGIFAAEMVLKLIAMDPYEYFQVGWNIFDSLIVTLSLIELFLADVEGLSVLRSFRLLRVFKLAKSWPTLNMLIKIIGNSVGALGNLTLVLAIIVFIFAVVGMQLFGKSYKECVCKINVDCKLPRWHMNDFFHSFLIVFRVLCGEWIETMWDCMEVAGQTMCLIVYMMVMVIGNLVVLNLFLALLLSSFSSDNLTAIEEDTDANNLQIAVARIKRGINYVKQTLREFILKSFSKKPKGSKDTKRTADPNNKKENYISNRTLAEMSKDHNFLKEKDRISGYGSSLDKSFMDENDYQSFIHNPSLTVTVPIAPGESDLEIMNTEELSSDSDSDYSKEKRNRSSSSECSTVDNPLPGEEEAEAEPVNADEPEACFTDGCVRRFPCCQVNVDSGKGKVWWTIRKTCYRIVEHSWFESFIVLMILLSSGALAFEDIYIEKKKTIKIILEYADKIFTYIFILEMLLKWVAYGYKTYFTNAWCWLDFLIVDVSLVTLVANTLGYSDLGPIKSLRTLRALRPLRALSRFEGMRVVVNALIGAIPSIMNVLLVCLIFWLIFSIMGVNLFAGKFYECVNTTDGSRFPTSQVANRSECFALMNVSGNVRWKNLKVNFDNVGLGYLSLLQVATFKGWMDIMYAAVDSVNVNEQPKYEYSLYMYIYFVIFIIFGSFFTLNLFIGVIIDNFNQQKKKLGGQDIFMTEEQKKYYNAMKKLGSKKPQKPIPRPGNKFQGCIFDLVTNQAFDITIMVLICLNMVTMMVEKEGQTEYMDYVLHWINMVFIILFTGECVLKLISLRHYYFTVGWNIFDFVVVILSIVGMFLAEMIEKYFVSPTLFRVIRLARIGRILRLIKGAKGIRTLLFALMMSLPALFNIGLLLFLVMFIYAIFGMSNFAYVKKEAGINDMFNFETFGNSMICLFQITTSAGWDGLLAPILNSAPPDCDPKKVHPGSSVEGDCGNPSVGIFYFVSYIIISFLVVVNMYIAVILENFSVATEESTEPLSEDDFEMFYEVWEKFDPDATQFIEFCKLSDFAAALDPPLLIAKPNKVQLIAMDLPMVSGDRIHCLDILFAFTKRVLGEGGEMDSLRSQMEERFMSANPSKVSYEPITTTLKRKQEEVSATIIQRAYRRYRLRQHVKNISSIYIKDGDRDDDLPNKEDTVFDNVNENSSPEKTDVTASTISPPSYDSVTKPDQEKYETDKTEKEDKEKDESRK", "T1 sequence (Q00954 19-218 partner)": "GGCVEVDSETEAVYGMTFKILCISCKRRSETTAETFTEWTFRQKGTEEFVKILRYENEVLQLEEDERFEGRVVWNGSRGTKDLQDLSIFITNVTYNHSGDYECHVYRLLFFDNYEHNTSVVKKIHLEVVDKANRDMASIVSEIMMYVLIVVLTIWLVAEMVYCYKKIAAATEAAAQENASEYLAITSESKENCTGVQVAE", "assay": "Two-electrode voltage-clamp on Xenopus laevis oocytes expressing Nav1.7/β1"}, "[2]": {"system": "Nav1.2/β1", "assay": "Two-electrode voltage-clamp on Xenopus laevis oocytes expressing Nav1.2/β1", "conditions": "1 µM; voltage of maximum sodium influx, holding −90 mV; oocytes TEVC; n ≥ 3", "description": "(§1) Using the two-electrode voltage-clamp technique on Xenopus laevis oocytes, the effect of PhlTx1 was also compared on eight different cloned vertebrate Nav channels co-expressed with the β1 subunit (Nav1.1-1.8/β1) and on the neuronal insect Nav channel, para, co-expressed with the tipE subunit (Figure 3 and Figure 4). […] Normalized current-voltage relationships (I-V curve) of Nav1.2/β1 and Nav1.3/β1 channels seemed to be shifted towards more negative potentials when PhlTx1 was applied, but shifts were not statistically significant […] (Figure 4). The activation phase of the other studied Nav channel subtypes was not affected. No obvious alteration in channel availability was observed, except a 5-mV negative shift for Nav1.3/β1, although that was also non-significant (p > 0.05).\n(§2) Figure 4 1 µM of PhlTx1 was tested on Nav1.1/β1, Nav1.2/β1, Nav1.3/β1, Nav1.4/β1, Nav1.5/β1, Nav1.6/β1, Nav1.8/β1 and para/tipE (n ≥ 3). Left column: current traces were evoked by a 50-ms depolarization to the voltage of maximum sodium influx, depending on the Nav studied, from a holding potential of −90 mV. At 1 µM PhlTx1, all studied Nav channels, except Nav1.4/β1, were blocked for about 10% (no toxin: *). The current of Nav1.4/β1 was reduced for about 35 ± 5%. Middle column: normalized I-V curves reveal no significant shift of the activation voltage (p > 0.05). […]"}, "[3]": {"system": "Nav1.3/β1", "assay": "Two-electrode voltage-clamp on Xenopus laevis oocytes expressing Nav1.3/β1", "description": "as §1, §2"}, "[4]": {"molecular_target": "T2, hNav1.4 (Homo sapiens, UniProt P35499)", "T2 construct": "expressed in transfected cells; host or cells: CHO cells", "T2 sequence (P35499 whole entry)": "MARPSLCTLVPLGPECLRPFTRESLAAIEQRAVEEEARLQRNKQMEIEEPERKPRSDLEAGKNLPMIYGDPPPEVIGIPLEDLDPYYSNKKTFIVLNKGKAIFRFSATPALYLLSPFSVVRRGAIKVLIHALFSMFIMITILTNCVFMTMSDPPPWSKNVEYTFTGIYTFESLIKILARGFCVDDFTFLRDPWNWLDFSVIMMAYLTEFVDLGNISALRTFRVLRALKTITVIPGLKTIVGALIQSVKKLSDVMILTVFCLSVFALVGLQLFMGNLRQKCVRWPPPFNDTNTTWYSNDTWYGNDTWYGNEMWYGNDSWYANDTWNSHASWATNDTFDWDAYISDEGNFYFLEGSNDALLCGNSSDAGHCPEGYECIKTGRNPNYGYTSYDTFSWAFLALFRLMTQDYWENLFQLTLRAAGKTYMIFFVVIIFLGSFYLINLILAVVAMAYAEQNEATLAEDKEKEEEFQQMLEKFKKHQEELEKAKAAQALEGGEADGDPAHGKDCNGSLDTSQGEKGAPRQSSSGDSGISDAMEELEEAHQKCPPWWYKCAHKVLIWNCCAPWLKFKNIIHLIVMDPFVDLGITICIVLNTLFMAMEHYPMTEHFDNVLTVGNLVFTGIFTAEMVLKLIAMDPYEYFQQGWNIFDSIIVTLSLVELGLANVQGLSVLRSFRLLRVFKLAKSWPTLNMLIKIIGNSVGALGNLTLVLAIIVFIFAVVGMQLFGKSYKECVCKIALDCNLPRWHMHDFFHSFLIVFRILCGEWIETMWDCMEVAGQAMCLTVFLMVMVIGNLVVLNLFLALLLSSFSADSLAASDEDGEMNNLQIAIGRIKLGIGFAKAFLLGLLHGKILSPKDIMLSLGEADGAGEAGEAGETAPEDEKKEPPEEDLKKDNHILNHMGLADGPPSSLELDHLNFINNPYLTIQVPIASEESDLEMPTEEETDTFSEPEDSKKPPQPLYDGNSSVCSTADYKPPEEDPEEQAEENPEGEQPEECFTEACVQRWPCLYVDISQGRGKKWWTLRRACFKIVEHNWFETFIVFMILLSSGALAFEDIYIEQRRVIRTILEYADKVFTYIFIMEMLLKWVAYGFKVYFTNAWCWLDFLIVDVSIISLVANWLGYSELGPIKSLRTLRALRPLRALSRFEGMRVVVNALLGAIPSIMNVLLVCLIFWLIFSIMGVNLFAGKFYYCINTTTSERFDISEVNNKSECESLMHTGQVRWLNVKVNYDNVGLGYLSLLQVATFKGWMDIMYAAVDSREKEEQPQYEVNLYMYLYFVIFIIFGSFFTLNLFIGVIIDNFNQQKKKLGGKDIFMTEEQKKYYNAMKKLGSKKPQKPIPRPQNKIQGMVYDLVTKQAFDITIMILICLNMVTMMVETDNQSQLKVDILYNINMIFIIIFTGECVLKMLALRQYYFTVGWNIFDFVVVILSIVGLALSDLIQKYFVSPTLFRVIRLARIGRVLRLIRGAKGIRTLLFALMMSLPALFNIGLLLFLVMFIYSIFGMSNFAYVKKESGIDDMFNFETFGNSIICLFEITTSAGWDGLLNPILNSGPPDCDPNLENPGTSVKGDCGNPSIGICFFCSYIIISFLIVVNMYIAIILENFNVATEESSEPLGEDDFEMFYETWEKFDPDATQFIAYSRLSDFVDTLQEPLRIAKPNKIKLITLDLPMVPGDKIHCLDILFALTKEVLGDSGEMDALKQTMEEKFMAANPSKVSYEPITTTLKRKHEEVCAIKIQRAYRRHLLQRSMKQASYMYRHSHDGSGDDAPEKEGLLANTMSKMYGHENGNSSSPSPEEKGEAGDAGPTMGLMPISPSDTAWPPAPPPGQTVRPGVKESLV", "assay": "Automated patch-clamp dose-response on hNav1.4 expressed in CHO cells", "conditions": "4 to 13 cells per concentration, read-out: calculated IC50"}},
  "note": "Bridge positions count the residues as written; N and C are the ends. Peptide text beside a SMILES is read from it.",
  "data": [
    {"molecule": "CC(C)C[C@@H]1NC(=O)[C@@H](NC(=O)[C@H](C)N)CSSC[C@@H]2NC(=O)[C@@H]3CSSC[C@@H](C(=O)N[C@@H](CCCNC(=N)N)C(=O)N[C@@H](Cc4ccc(O)cc4)C(=O)N[C@@H](CCCCN)C(=O)N[C@@H](CC(C)C)C(=O)N[C@@H](Cc4ccccc4)C(=O)O)NC(=O)[C@H](Cc4c[nH]c5ccccc45)NC(=O)[C@@H]4CCCN4C(=O)[C@H](Cc4ccc(O)cc4)NC(=O)[C@H](CCCCN)NC(=O)[C@H](Cc4c[nH]c5ccccc45)NC(=O)[C@H](CCC(=O)O)NC(=O)[C@H](CSSC[C@H](NC(=O)[C@H](CO)NC(=O)[C@H](CC(=O)O)NC(=O)[C@H](Cc4c[nH]c5ccccc45)NC(=O)[C@H](CCC(N)=O)NC(=O)CNC1=O)C(=O)N[C@@H](CC(=O)O)C(=O)N1CCC[C@H]1C(=O)N[C@@H](CCCCN)C(=O)N[C@@H](C)C(=O)N[C@@H](CO)C(=O)N[C@@H](CCCCN)C(=O)N3)NC(=O)[C@H](C)NC(=O)[C@H](Cc1ccc(O)cc1)NC(=O)[C@H](CC(N)=O)NC(=O)[C@@H]1CCCN1C2=O", "note": "[PhlTx1, Phlotoxin-1] (H-ACLGQWDSCDPKASKCCPNYACEWKYPWCRYKLF-OH; disulfide 2-17, 9-22, 16-29; N-terminus and C-terminus assumed)", "values": [
      {"measurement": "inhibition at 1 µM", "setting": "[1]; 1 µM, holding −90 mV, oocytes TEVC, clone rPN1, read-out: inhibition of inward currents", "value": "90 ± 7", "unit": "%"},
      {"measurement": "IC50", "setting": "[1]; Xenopus laevis oocytes, stimulus frequency 0.3 Hz, Hill equation fit, n = 4, 0.1% BSA", "value": "260 ± 46", "unit": "nM"},
      {"measurement": "Hill coefficient", "setting": "[1]; Xenopus laevis oocytes, stimulus frequency 0.3 Hz, n = 4", "value": 1.3},
      {"measurement": "block of sodium current", "setting": "[2]", "value": "about 10%"},
      {"measurement": "negative shift in channel availability", "setting": "[3]; 1 µM PhlTx1, non-significant (p > 0.05)", "value": 5, "unit": "mV"},
      {"measurement": "block of sodium current", "setting": "[3]; 1 µM, voltage of maximum sodium influx, holding −90 mV, oocytes TEVC, n ≥ 3", "value": "about 10%"},
      {"measurement": "IC50", "setting": "[4]", "value": "> 3000", "unit": "nM"}
    ]}
  ]
}
